Values of other authors in patent publication US20050260613A1 (priority 2003, published 2005).

Test system: AD patients
Conditions: presence of the ApoE4 allele

Nc1c2c(nc3ccccc13)CCCC2 [tacrine]
response to treatment in presence of the ApoE4 polymorphism: reduced response
